Reference: patent publication US12286442B2, “Methods and materials for increasing transcription factor eb polypeptide levels” (University of Pittsburgh—Of the Commonwealth System of …, priority 2019, dated 2025)

Experiments:
BEAS-2B cells = assay: Toxicity: compound concentration needed to induce greater than 50 percent of cell loss; assay type: cell-based, human; details: 18 hours incubation
In short: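 BEAS-2B cells stably expressing TFEB-EGFP treated with serial compound dilutions for 18 h, then PFA-fixed, DAPI-stained and imaged. Toxicity scored as the concentration causing >50% cell loss, binned as ≥25 μM, <25 and >1 μM, or ≤1 μM ("+++").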

TFEB = assay: High content screen measuring TFEB nuclear accumulation (TFEB nuclear/cytosol ratio) in BEAS-2B cells stably expressing TFEB-EGFP; assay type: cell-based, human; details: 18 hours incubation
In short: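 BEAS-2B cells stably expressing TFEB-EGFP (~2300–2500 per well) pre-incubated 8 hours, then exposed to serially diluted compounds (DMEM low glucose, 2% FBS) for 18 hours, PFA-fixed and DAPI-stained. Imaged nuclear (DAPI mask) vs cytosolic (expanded mask) TFEB-GFP; activity = minimal concentration raising nuclear/cytosol ratio by 25%.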

SMILES	toxicity (compound concentration needed to induce greater than 50 percent of cell loss) (BEAS-2B cells)	efficacy (minimal compound concentration needed to increase TFEB nuclear/cytosol ratio by 25%) (TFEB)
CC(C)c1nc2ccc(Nc3nc(-c4ccncc4)nc4ncccc34)cc2s1 [Compound 130]	+ (cell loss of greater than 50 percent at a concentration that equals or is greater than 25 μM was represented as)	+++ (“+++” equals ≤1 μM)
Cc1ccc(-c2nc(Nc3ccc(C)c(F)c3)c3ccccc3n2)cc1 [Compound 202]	+ (cell loss of greater than 50 percent at a concentration that equals or is greater than 25 μM was represented as)	+ (“+” equals >25 μM)
c1ccc2c(Nc3ccc4cnsc4c3)nc(-c3cncs3)nc2c1 [Compound 390]	+ (cell loss of greater than 50 percent at a concentration that equals or is greater than 25 μM was represented as)	+ (“+” equals >25 μM)
Cc1cccc2c(Nc3cc(F)c4[nH]ccc4c3)nc(-c3ccncc3)nc12 [Compound 156]	+ (cell loss of greater than 50 percent at a concentration that equals or is greater than 25 μM was represented as)	+++ (“+++” equals ≤1 μM)
c1ccc2c(Nc3ccc4cnoc4c3)nc(-c3cncs3)nc2c1 [Compound 393]	+ (cell loss of greater than 50 percent at a concentration that equals or is greater than 25 μM was represented as)	++ (“++” equals between ≤25 μM and >1 μM)
Cc1ccc2nc(-c3ccncc3)nc(Nc3ccc4nc(C(C)C)sc4c3)c2c1 [Compound 154]	+ (cell loss of greater than 50 percent at a concentration that equals or is greater than 25 μM was represented as)	+++ (“+++” equals ≤1 μM)
C1=C(c2nc(Nc3ccc4[nH]ncc4c3)c3ccccc3n2)CCNC1 [Compound 75]	+ (cell loss of greater than 50 percent at a concentration that equals or is greater than 25 μM was represented as)	+ (“+” equals >25 μM)
Cc1nc2ccc(Nc3nc(-c4ccncc4)nc4ccncc34)cc2s1 [Compound 118]	+ (cell loss of greater than 50 percent at a concentration that equals or is greater than 25 μM was represented as)	++ (“++” equals between ≤25 μM and >1 μM)
Oc1ccc(-c2nc(Nc3ccc4[nH]ccc4c3)c3ccccc3n2)cc1 [Compound 63]	+ (cell loss of greater than 50 percent at a concentration that equals or is greater than 25 μM was represented as)	+ (“+” equals >25 μM)
c1cc(-c2nc(Nc3ccc4cnsc4c3)c3cnccc3n2)ccn1 [Compound 139]	+ (cell loss of greater than 50 percent at a concentration that equals or is greater than 25 μM was represented as)	+ (“+” equals >25 μM)
Fc1cccc(Nc2nc(-c3ccncc3)nc3ncccc23)c1 [Compound 82]	+ (cell loss of greater than 50 percent at a concentration that equals or is greater than 25 μM was represented as)	+++ (“+++” equals ≤1 μM)
c1ccc2c(Nc3ccc4cn[nH]c4c3)nc(-c3cncs3)nc2c1 [Compound 389]	+ (cell loss of greater than 50 percent at a concentration that equals or is greater than 25 μM was represented as)	+ (“+” equals >25 μM)
Cc1cc(Br)cc(Nc2nc(-c3ccncc3)nc3ccccc23)c1 [Compound 55]	+ (cell loss of greater than 50 percent at a concentration that equals or is greater than 25 μM was represented as)	+ (“+” equals >25 μM)
OCCNc1nc(-c2ccncc2)nc2ccccc12 [Compound 168]	+ (cell loss of greater than 50 percent at a concentration that equals or is greater than 25 μM was represented as)	+ (“+” equals >25 μM)
c1ccc2c(Nc3ccc4c(c3)OCCN4)nc(-c3ccncc3)nc2c1 [Compound 41]	++ (cell loss of greater than 50 percent at a concentration less than 25 μM and greater than 1 μM was represented as)	++ (“++” equals between ≤25 μM and >1 μM)
Cc1cccc2c(Nc3ccc4[nH]ccc4c3)nc(-c3ccncc3)nc12 [Compound 117]	+ (cell loss of greater than 50 percent at a concentration that equals or is greater than 25 μM was represented as)	+++ (“+++” equals ≤1 μM)
Cc1cc(F)cc(Nc2nc(-c3ccncc3)nc3ccccc23)c1 [Compound 184]	+ (cell loss of greater than 50 percent at a concentration that equals or is greater than 25 μM was represented as)	++ (“++” equals between ≤25 μM and >1 μM)
COc1ccc(-n2c(=O)c3ccc(C(=O)NCCc4ccccc4)cc3n(Cc3cccc(F)c3)c2=O)cc1 [Compound 215]	++ (cell loss of greater than 50 percent at a concentration less than 25 μM and greater than 1 μM was represented as)	++ (“++” equals between ≤25 μM and >1 μM)
c1ccc2c(Nc3ccc4[nH]ncc4c3)nc(-c3ccncc3)cc2c1 [Compound 48]	+ (cell loss of greater than 50 percent at a concentration that equals or is greater than 25 μM was represented as)	+ (“+” equals >25 μM)
CCc1ccc(-n2c(=O)c3ccccc3n(Cc3cccc(F)c3)c2=O)cc1 [Compound 237]	+ (cell loss of greater than 50 percent at a concentration that equals or is greater than 25 μM was represented as)	++ (“++” equals between ≤25 μM and >1 μM)
CCCCc1nc2ccc(Nc3nc(-c4ccncc4)nc4ccccc34)cc2o1 [Compound 359]	+ (cell loss of greater than 50 percent at a concentration that equals or is greater than 25 μM was represented as)	+ (“+” equals >25 μM)
N#Cc1c[nH]c2ccc(Nc3nc(-c4ccncc4)nc4ccccc34)cc12 [Compound 38]	+ (cell loss of greater than 50 percent at a concentration that equals or is greater than 25 μM was represented as)	+ (“+” equals >25 μM)
c1ccc2c(Nc3ccc4[nH]ccc4c3)nc(-c3cc[nH]c3)nc2c1 [Compound 104]	+ (cell loss of greater than 50 percent at a concentration that equals or is greater than 25 μM was represented as)	+++ (“+++” equals ≤1 μM)
COc1ccc(-n2c(=O)c3ccc(C(=O)NCc4ccc(C)cc4)cc3n(CC(=O)Nc3cc(C)[nH]n3)c2=O)cc1 [Compound 218]	+ (cell loss of greater than 50 percent at a concentration that equals or is greater than 25 μM was represented as)	+ (“+” equals >25 μM)
Cc1ccc(Nc2nc(-c3ccc([N+](=O)[O-])cc3)nc3ccccc23)c(C)c1 [Compound 200]	+ (cell loss of greater than 50 percent at a concentration that equals or is greater than 25 μM was represented as)	++ (“++” equals between ≤25 μM and >1 μM)
c1cnc2nc(-c3cncs3)nc(Nc3ccc4[nH]ncc4c3)c2c1 [Compound 383]	+ (cell loss of greater than 50 percent at a concentration that equals or is greater than 25 μM was represented as)	++ (“++” equals between ≤25 μM and >1 μM)
Cc1cc(F)cc(Nc2nc(N3CCOCC3)nc3ccccc23)c1 [Compound 46]	+ (cell loss of greater than 50 percent at a concentration that equals or is greater than 25 μM was represented as)	+ (“+” equals >25 μM)
c1ccc(CCNc2nc(-c3ccncc3)nc3ccccc23)cc1 [Compound 167]	+ (cell loss of greater than 50 percent at a concentration that equals or is greater than 25 μM was represented as)	++ (“++” equals between ≤25 μM and >1 μM)
Cc1cccc2c(Nc3ccc4nc(C5CC5)sc4c3)nc(-c3ccncc3)nc12 [Compound 379]	+ (cell loss of greater than 50 percent at a concentration that equals or is greater than 25 μM was represented as)	+++ (“+++” equals ≤1 μM)
